“Also recorded” adds a separate entry of the source.
Experiments:
DM subject [1] = assay: Epworth Sleepiness Scale, self-reported
DM subject [2] = assay: Functional Outcomes of sleep, self-reported; type: in vivo, human; settings: additional DM subject; ON treatment: flumazenil 12-18 mg sublingual plus 12 mg topical daily, or armodafinil 250 mg QAM
DM subject [3] = assay: Owl Lark questionnaire, self-reported; type: in vivo, human; settings: additional DM subject; ON treatment: flumazenil 12-18 mg sublingual plus 12 mg topical daily, or armodafinil 250 mg QAM
DM subject [4] = assay: Multidimensional Fatigue Inventory, self-reported; type: in vivo, human; settings: additional DM subject; ON treatment: flumazenil 12-18 mg sublingual plus 12 mg topical daily, or armodafinil 250 mg QAM
DM subject [5] = assay: Beck Depression Inventory, self-reported; type: in vivo, human; settings: additional DM subject; ON treatment: flumazenil 12-18 mg sublingual plus 12 mg topical daily, or armodafinil 250 mg QAM
DM subject [6] = assay: Fatigue severity scale, self-reported; type: in vivo, human; settings: additional DM subject; ON treatment: flumazenil 12-18 mg sublingual plus 12 mg topical daily, or armodafinil 250 mg QAM
DM subject [7] = assay: Sleep inertia questionnaire, self-reported; type: in vivo, human; settings: additional DM subject; ON treatment: flumazenil 12-18 mg sublingual plus 12 mg topical daily, or armodafinil 250 mg QAM
DM subject [8] = assay: Hypersomnia Severity Index, self-reported; type: in vivo, human; settings: additional DM subject; ON treatment: flumazenil 12-18 mg sublingual plus 12 mg topical daily, or armodafinil 250 mg QAM
[9] = tested on: MBNL2 knockout and DMSXL transgenic mouse models; settings: MBNL2 knockout and DMSXL transgenic mice; Charizanis et al. 2012; cited from earlier work
[10] = target: GABRG2S-containing receptors in HEK293T cells (Homo sapiens, UniProt P14867+P18507); assay: Patch clamp electrophysiology with DM subject CSF in HEK293T cells; settings: CSF from DM subject 2, with GABA; clarithromycin added
Sequence of GABRG2S-containing receptors in HEK293T cells (P18507 40-467 isoform P18507-1 limits assumed): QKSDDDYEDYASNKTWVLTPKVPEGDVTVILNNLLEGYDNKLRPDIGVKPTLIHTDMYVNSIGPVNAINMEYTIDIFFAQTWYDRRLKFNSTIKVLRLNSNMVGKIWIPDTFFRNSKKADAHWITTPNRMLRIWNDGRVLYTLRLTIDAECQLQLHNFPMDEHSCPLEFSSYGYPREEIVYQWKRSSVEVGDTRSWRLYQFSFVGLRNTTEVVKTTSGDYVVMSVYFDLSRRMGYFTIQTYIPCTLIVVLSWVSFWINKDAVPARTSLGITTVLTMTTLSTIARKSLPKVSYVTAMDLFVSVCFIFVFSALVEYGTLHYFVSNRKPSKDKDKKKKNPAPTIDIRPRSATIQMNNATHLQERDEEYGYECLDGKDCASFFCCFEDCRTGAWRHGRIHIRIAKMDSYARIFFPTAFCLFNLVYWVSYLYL
Sequence of GABRG2S-containing receptors in HEK293T cells (P14867 28-456): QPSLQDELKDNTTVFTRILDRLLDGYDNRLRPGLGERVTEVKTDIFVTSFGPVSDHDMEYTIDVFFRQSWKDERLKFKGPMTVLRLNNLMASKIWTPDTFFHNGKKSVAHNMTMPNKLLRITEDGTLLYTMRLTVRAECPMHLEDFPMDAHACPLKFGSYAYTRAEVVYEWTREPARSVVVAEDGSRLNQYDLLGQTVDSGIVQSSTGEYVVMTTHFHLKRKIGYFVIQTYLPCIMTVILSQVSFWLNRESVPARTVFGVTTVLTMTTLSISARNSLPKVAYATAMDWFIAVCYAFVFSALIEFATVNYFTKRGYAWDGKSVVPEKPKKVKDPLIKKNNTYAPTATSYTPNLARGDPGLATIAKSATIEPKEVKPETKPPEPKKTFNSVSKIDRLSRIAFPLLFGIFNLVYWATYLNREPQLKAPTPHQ
Sequence of GABRG2S-containing receptors in HEK293T cells (P47870 25-512 partner limits assumed): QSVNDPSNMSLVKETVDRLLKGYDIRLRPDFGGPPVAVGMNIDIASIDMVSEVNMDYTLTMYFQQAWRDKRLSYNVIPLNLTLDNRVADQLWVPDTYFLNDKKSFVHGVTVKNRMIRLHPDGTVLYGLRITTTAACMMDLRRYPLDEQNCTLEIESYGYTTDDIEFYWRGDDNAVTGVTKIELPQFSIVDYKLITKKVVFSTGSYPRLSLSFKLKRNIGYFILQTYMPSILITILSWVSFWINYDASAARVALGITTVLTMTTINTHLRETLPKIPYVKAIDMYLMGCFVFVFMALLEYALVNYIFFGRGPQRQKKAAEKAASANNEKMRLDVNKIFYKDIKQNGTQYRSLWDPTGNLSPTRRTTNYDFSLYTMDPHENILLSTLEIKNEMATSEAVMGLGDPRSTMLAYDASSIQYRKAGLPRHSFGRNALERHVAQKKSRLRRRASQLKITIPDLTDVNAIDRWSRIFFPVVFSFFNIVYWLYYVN

DM subject [11] = assay: Clinical treatment of hypersomnia and cognitive deficits in DM subjects; type: in vivo, human
gamma 2L deficient mice = settings: Quinlan et al. 2000; cited from earlier work
DM subject 1 [12] = assay: Ten-minute psychomotor vigilance task
[13] = tested on: benzodiazepine binding site of GABAA receptors; settings: previous work, Rye et al. 2012; cited from earlier work
DM subject 1 [14] = assay: Stanford sleepiness scale; settings: intravenous flumazenil, 2 different doses incl. 2.0 mg, average of 3 assessments over one hour
[15] = tested on: idiopathic hypersomnia (IH) subjects; settings: previous work, Rye 2012; Trotti 2016; cited from earlier work
[16] = additional DM subject, ON treatment: flumazenil 12-18 mg sublingual plus 12 mg topical daily, or armodafinil 250 mg QAM

With `NC(=O)C[S@@+]([O-])C(c1ccccc1)c1ccccc1` [Armodafmil, armodafinil] the “Epworth Sleepiness Scale” value (DM subject [1]; [16]) was 8, the “Functional Outcomes of sleep (5-20)” value (DM subject [2]) was 16.875 and the “Owl Lark” value (DM subject [3]) was 36. The “General Fatigue (5-20)” value (DM subject [4]) was 15, the “Mental Fatigue (5-20)” value (DM subject [4]) was 11 and the “Physical Fatigue (5-20)” value (DM subject [4]) was 6. For the same compound, the “Reduced Activity (5-20)” value (DM subject [4]) was 7, the “Reduced Motivation (5-20)” value (DM subject [4]) was 5 and the “Beck Depression Inventory (0-39)” value (DM subject [5]) was 3. For the same compound, the “Fatigue severity scale (7-63)” value (DM subject [6]) was 47, the Sleep inertia questionnaire (DM subject [7]) was 14.683 and the “Hypersomnia Severity Index (0-36)” value (DM subject [8]) was 25.

For `C1CCc2nnnn2CC1` [Pentylenetetrazole], the “spontaneous seizure and death in response to PTZ” value [9] is given as “increased frequency of spontaneous seizure and death”.

With `CC[C@H]1OC(=O)[C@H](C)[C@@H](O[C@H]2C[C@@](C)(OC)[C@@H](O)[C@H](C)O2)[C@H](C)[C@@H](O[C@@H]2O[C@H](C)C[C@H](N(C)C)[C@H]2O)[C@](C)(OC)C[C@@H](C)C(=O)[C@H](C)[C@@H](O)[C@]1(C)O` [clarithromycin] the “effect on endozepine-like activity of CSF” value [10] was “reversed; also recorded: normalized”, the “Oral clarithromycin treatment outcome” value (DM subject [11]; DM subject 1) was “discontinued use -” and the “Oral clarithromycin treatment outcome” value (DM subject [11]; DM subject 2) was “clinical benefit; also recorded: efficacious”.

For `CCOC(=O)c1ncn2c1CN(C)C(=O)c1cc(F)ccc1-2` [flumazenil], the “Epworth Sleepiness Scale” value (DM subject [1]; DM subject 4, ON flumazenil 12-18 mg sublingual plus 12 mg topical daily, 6 continuous weeks) is listed as 5, the “Epworth Sleepiness Scale” value (DM subject [1]; [16]) is listed as 7 and the “action of midazolam in gamma 2L deficient mice” value (gamma 2L deficient mice) is listed as “reversed”. The “time elapsed between visual stimulus and user input” value (DM subject 1 [12]; 2.0 mg intravenously administered flumazenil, versus before treatment) was “dramatic decrease in time elapsed”, the “lapses in attention (reaction times >500 ms)” value (DM subject 1 [12]; intravenous flumazenil, 2 different doses incl. 2.0 mg) was “marked reduction in lapses in attention; also recorded: decreased” and the endozepine-like molecule binding [13] was “inhibits endozepine-like molecule binding”. For the same compound, the “self reported sleepiness on the Stanford sleepiness scale” value (DM subject 1 [14]) was “reduced sleepiness” and the “clinical benefit in idiopathic hypersomnia” value [15] was “clinical benefit”.

Reference: patent US11529358B2, “Treatment of conditions associated with myotonic dystrophy” (priority 2017, dated 2022)
